The values below come from PMC10622746, “Coadministration of ivermectin and abamectin affects milk pharmacokinetics of the antiparasitic clorsulon in Assaf sheep” (Frontiers in Veterinary Science, 2023).

The subject of data set [1] is ovine ABCG2. The experiment in a line: in vitro. The conditions noted are these: sheep.
Procedure: (§5) This study employed Madin-Darby Canine Kidney (MDCKII) cells that had been previously transduced with ovine ABCG2. […] Briefly, cells were grown in DMEM (Dulbecco’s modified Eagle’s medium) enriched with glutamax (Life Technologies, Inc., Rockville, MD, United States) and supplemented with penicillin (50 units/mL), streptomycin (50 μg/mL), and 10% (v/v) fetal calf serum (MP Biomedicals, Solon, OH, United States) at a temperature of 37°C and 5% of CO2. Every 3 to 4 days, cells were trypsinized for subculturing.
(§6) Transcellular transport experiments using ovine ABCG2-transduced cells were conducted following the method previously described ([33]). Cells were seeded onto microporous polycarbonate membrane filters (3.0 μm pore size, 24 mm diameter; Transwell 3414; Costar, Corning, NY) at a density of 1.0 × 10^6 per well. The tightness of the monolayer was assessed by measuring its transcellular resistance using Millicell ERS (Millipore Burlington, MA).
(§7) Two hours before the beginning, preincubation was carried out replacing medium in both compartments with 2 mL of transport medium [Hanks’ balanced salt solution supplemented with HEPES (25 mM)] with or without the macrocyclic lactones (10 μM ivermectin and 2.5 μM abamectin). The experiment began with the replacement of the medium in either the apical or basal compartment with transport medium containing clorsulon (10 μM), with or without the same concentration of macrocyclic lactones. Aliquots of 100 μL at 1, 2 and 3 h in the opposite compartment were taken, this volume being replaced with fresh medium. At 4 h, 600 μL aliquots were taken in both compartments. Until analysis by high-performance liquid chromatography (HPLC), samples were stored at −20°C. After concluding the experiment, the confluence of the monolayer was evaluated by means of the Lucifer Yellow permeability assay ([34]). Transport proficiency of these cells was consistently verified through the evaluation of a typical ABCG2 substrate, danofloxacin ([25]).
(§8) The apparent permeability coefficients (Papp) across MDCKII parent and MDCKII oABCG2 cells monolayers in both apical to basal (A-B) (Papp A-B) and basal to apical (B-A) (Papp B-A) directions were calculated using following equation: Papp = (ΔQ/Δt)*(1/A*Co), where ΔQ/Δt is the rate of corresponding clorsulon appearing in the receiver chamber, which was obtained as the slope of the regression line on the transport time profile of clorsulon across the cell monolayers (from 0 to 4 h); Co is the initial concentration of drug; A is the cell monolayer surface area (4.67 cm^2). The efflux ratio is the Papp B-A/Papp A-B quotient.
Details of data set [2]: method as in earlier work. The conditions noted are these: cattle, s.c. 2 mg/kg clorsulon; cited from earlier work.
Data set [3] can be described thus: Plasma pharmacokinetics of clorsulon in lactating Assaf sheep. It counts as in vivo. The note with it: female. The method, then:
(§1) Studies with sheep were carried out on the Experimental Farm of the University of León, following institutional guidelines in accordance with European legislation (2010/63/EU). Procedures were also approved by the Animal Care and Use Committee of the University of León ULE-008-2019 (25/09/2019). Eighteen lactating sheep (3–4 months in lactation) of between 77–83 kg were used. Animals were previously dewormed and they had ad libitum access to drinking water. Sheep were randomly distributed in three experimental groups. All received a subcutaneous (s.c.) injection of clorsulon at 2 mg/kg (dissolved in DMSO, 80 mg/mL); one group coadministrated with another s.c. injection of ivermectin at 0.2 mg/kg (Ivomec® 1%, Merial, France) and another group with another s.c. injection of abamectin at 0.2 mg/kg (dissolved in DMSO, 8 mg/mL). Blood samples were taken from the jugular vein, while milk samples were obtained after completing milking of the gland before each treatment and at intervals of 1, 2, 4, 6, 8, 10, 12, 24, 30, 48, 72, 96, 120 and 168 h thereafter. Plasma was separated by centrifuging at 1200 g 15 min. Samples were stored at −20°C until analyzed.
(§2) Samples were analyzed by HPLC under conditions which have been previously described ([31]). Briefly, the chromatographic system used included a Waters 2695 separation module and a Waters 2998 UV photodiode array detector. Separation was performed on a reversed-phase column ([…], […], Torrance, CA, United States). The mobile phase consisted of potassium phosphate 0.01 M (pH 7): acetonitrile (75:25). The flow rate was set at 1.20 mL/min, with UV absorbance measured at 225 nm, and the column temperature maintained at 35°C.
(§3) In vitro samples were injected directly into the HPLC system. In vivo samples, milk and plasma, were extracted following a formerly described method ([31]) with minor modifications. For milk and plasma samples, 10 μL of albendazole-2-aminosulfone (6.25 μg/mL) as internal standard and 200 μL of ethyl acetate were added to each 100 μL. Then, the mixture was vortexed horizontally for 1 min and centrifuged at 8000 g for 10 min at 4°C. The resulting supernatant was collected and subjected to evaporation under N2 at 30°C until dryness. To the evaporated samples, 500 μL of hexane and 300 μL of acetonitrile was added, the mixture was again vortexed horizontally for 1 min and centrifuged at 3000 g for 10 min at 4°C. Hexane was removed and the rest was evaporated to dryness under nitrogen stream. After being resuspended in 100 μL of cold methanol, samples were injected into the HPLC system.
(§4) Plasma and milk concentrations for each animal were analyzed using PK solution 2.0 computer program (Summit Research Services, Ashland, OH) to calculated pharmacokinetic parameters as previously described ([27]).

Data set [4] can be described thus: Milk pharmacokinetics of clorsulon in lactating Assaf sheep. The data set is classed as in vivo. The conditions noted are these: clorsulon 2 mg/kg s.c., alone or with ivermectin or abamectin 0.2 mg/kg s.c., mean ± SD, n = 6. The method, then:
as §1, §2, §3, §4

The subject of data set [5] is ovine ABCG2.
Procedure: as §5, §6, §7, §8
A further data set has as its system human ABCG2. On the set-up: method as in PMID 37078871. The note with it: human ABCG2 transduced cell line; cited from earlier work.
Data set [6] is described as follows: Transepithelial transport of clorsulon across MDCKII parental cell monolayers. It counts as in vitro ADME, Canine. The conditions noted are these: dog, MDCK, MDCKII parental cells, clorsulon 10 μM, with or without ivermectin 10 μM, abamectin 2.5 μM, Ko143 1 μM, mean ± SD.
The subject of the next data set is murine ABCG2. On the set-up: method as in PMID 37078871. The conditions noted are these: murine ABCG2 transduced cell line; cited from earlier work.
The test system of data set [7] is ovine ABCG2. The conditions noted are these: at 25 μM in ovine ABCG2-transduced cells; cited from earlier work.
The mark [8] stands for this setting: sc, clorsulon 2 mg/kg s.c., alone or with ivermectin or abamectin 0.2 mg/kg s.c., mean ± SD, n = 6.
Where [9] appears, read: MDCKII oABCG2 cells, ivermectin 10 μM, abamectin […], Ko143 1 μM.

Where two headings read alike, the source gives them in different places.

Take `Nc1cc(C(Cl)=C(Cl)Cl)c(S(N)(=O)=O)cc1S(N)(=O)=O` [Clorsulon]: in the data set on ovine ABCG2 [1], the apical-to-basolateral permeability (Papp A→B) (as a rule, the apparent permeability from the apical to the basolateral side of a cell layer) at 4 h, 10 μM was 1.13 ± 0.16 ×10⁻⁶ cm/s; the Papp B→A (as a rule, how fast a substance crosses the layer from the basolateral side) at 4 h, 10 μM is 3.23 ± 0.88 ×10⁻⁶ cm/s; the efflux ratio at 4 h, 10 μM worked out at 2.92 ± 0.93. In addition, in [2], the Maximum plasma concentration is 2.5 µg/mL and the “Time of maximum plasma concentration” value is reported as 6 h. For the same molecule, in [3] (setting [8]), the AUC(0-inf) (commonly the area under the concentration-time curve extrapolated to infinity) turned out to be 43300 ± 6400 ng·h/mL; the peak level (Cmax) was 2130 ± 280 ng/mL; the MRT – broadly, the average time that molecules of a dose stay in the body – turned out to be 25 ± 3.97 h; the Tmax – broadly, the time at which the peak concentration occurs – was determined as 6.67 ± 1.93 h. Also, the half-life in data set [3] (sc, clorsulon 2 mg/kg s.c., alone or with ivermectin or abamectin 0.2 mg/kg s.c., mean ± SD, n = 6, read-out: T1/2 of clorsulon in plasma (converted)) was 19 ± 2.38 h. The same molecule yielded a concentration at 8 h in data set [3] (subcutaneous, 8 h after clorsulon 2 mg/kg s.c., alone or with ivermectin 0.2 mg/kg s.c.) of 1950 ± 240 ng/mL. For the same molecule, in data set [4] (female, Assaf, milk/plasma, subcutaneous, sheep, read-out: AUC milk/AUC plasma), the Kp was 0.49 ± 0.14. In data set [4] (female, Assaf, sc, sheep milk), the AUC(0-inf) stood at 20700 ± 4970 ng·h/mL, the highest level (Cmax) was 650 ± 290 ng/mL, the mean residence time (MRT) was determined as 40.8 ± 6.15 h and the Tmax came to 10 ± 1.26 h. Besides, in [4] (female, Assaf, sc, sheep milk, read-out: T1/2 of clorsulon in milk (converted)), the half-life is 25.9 ± 3.72 h. For the same molecule, the “Dose excreted (%) in milk (72 h)” value in [4] (sheep milk, 72 h) turned out to be 0.86 ± 0.28%. Besides, the “Transport by ovine ABCG2 (substrate, in words)” value in the data set with ovine ABCG2 [5] (MDCKII oABCG2 cells, clorsulon 10 μM) was “efficiently transported”. In the data set with human ABCG2, the Efflux transport ratio was 1.63 ± 0.17. For the same molecule, the apparent permeability from apical to basolateral (Papp A→B) at 4 h, 10 μM in data set [6] (n ≥ 3, read-out: AP-BL (Papp A-B)) came to 2.27 ± 0.46 ×10⁻⁶ cm/s. Also, the basolateral-to-apical permeability (Papp B→A) at 4 h, 10 μM in data set [6] (n ≥ 3, read-out: BL-AP (Papp B-A)) was found to be 2.41 ± 0.46 ×10⁻⁶ cm/s. Moreover, the efflux ratio at 4 h, 10 μM in data set [6] (read-out: Efflux ratio Papp B-A/Papp A-B) worked out at 1.07 ± 0.06. In addition, the Efflux transport ratio in the data set on murine ABCG2 is 2.20 ± 0.13.

`COc1ccc2c3c([nH]c2c1)[C@H](CC(C)C)N1C(=O)[C@H](CCC(=O)OC(C)(C)C)NC(=O)[C@@H]1C3` [Ko143]: the “Inhibition of clorsulon (10 μM) transport mediated by ovine ABCG2 (in words)” value (from here on “Inhibition of clorsulon”) with ovine ABCG2 [5] (setting [9]) is “complete inhibition”.

Abamectin: in the data set with ovine ABCG2 [5] (setting [9]), the “Inhibition of clorsulon” value is “effectively inhibited”.

Turning to Ivermectin, the Inhibition potency value in the data set on ovine ABCG2 [7] is reported as 45.9%. Further, the “Inhibition of clorsulon” value in the data set on ovine ABCG2 [5] is recorded as “effectively inhibited”.
